Measured values from patent US12552748B2, “Pyridine (thio)amides as fungicidal compounds” (Bayer Aktiengesellschaft, priority 2020, dated 2026).
Marks after values point to notes of the source that are not given here.

Assay: physchem
Format: physicochemical
Summary of the method: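 Reversed-phase HPLC per EEC directive 79/831 Annex V.A8, calibrated with straight-chain alkan-2-ones (C3–C16) of known Log P via linear interpolation of retention times. Lambda-max from UV spectra 200–400 nm at chromatographic peaks.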

O=C(c1cc(Cl)ncc1Oc1cccc(C(F)(F)F)c1)N(O)CCc1ccc(Cl)cc1 [Compound I-164]
LogP: 4.01^[a]

Cc1ccc(CCNC(=O)c2cc(Cl)ncc2Oc2ccc(OC(F)(F)F)cc2)c(C)c1 [Compound I-165]
LogP: 4.97^[a]

CCC(=O)N(CCc1ccccc1)C(=O)c1cc(Cl)ncc1Oc1cccc(C(F)(F)F)c1 [Compound I-166]
LogP: 5.08^[a]

Cc1ccc(CCNC(=O)c2cc(Cl)ncc2Oc2ccc3ccccc3c2)c(C)c1 [Compound I-168]
LogP: 5.03^[a]

Cc1ccc(C(F)(F)CNC(=O)c2c(Oc3cccc(C(F)(F)F)c3)cnc(Oc3cccc(C(F)(F)F)c3)c2-n2cccn2)c(C)c1 [Compound I-169]
LogP: 5.53^[a]

Cc1ccc(CCNC(=O)c2cc(Cl)ncc2Oc2cccc(N(C)C)c2)c(C)c1 [Compound I-170]
LogP: 4.83^[a]

COc1ccc(CCN(C(C)=O)C(=O)c2cc(Cl)ncc2Oc2cccc(C(F)(F)F)c2)cc1 [Compound I-171]
LogP: 4.55^[a]

O=C(NCC(F)(F)c1ccc(-c2ccncc2Cl)cc1Cl)c1cc(-c2ccncc2Cl)ncc1Oc1cccc(C(F)(F)F)c1 [Compound I-172]
LogP: 4.33^[a]

C=Cc1cc(C(=O)NCC(F)(F)c2ccc(C)cc2C)c(Oc2cccc(C3CC3)c2F)cn1 [Compound I-173]
LogP: 5.04^[a]

CSc1c(Cl)ncc(Oc2cccc(C(F)(F)F)c2)c1C(=O)NCC(F)(F)c1ccc(C)cc1C [Compound I-174]
LogP: 4.85^[a]

Cc1ccc(C(F)(F)CNC(=O)c2c(Oc3cccc(Cl)c3)cnc(Cl)c2Cl)c(C)c1 [Compound I-175]
LogP: 4.85^[a]

CON(CCc1ccc(Cl)cc1Cl)C(=O)c1cc(Cl)ncc1Oc1cccc(C(F)(F)F)c1 [Compound I-177]
LogP: 5.24^[a]

Cc1ccc(C(F)(F)CNC(=O)c2c(Br)cnc(Cl)c2Oc2cccc(Cl)c2)c(C)c1 [Compound I-178]
LogP: 5.04^[a]

C#Cc1c(Cl)ncc(Oc2cccc(C(F)(F)F)c2)c1C(=O)NCC(F)(F)c1ccc(C)cc1C [Compound I-179]
LogP: 5.74^[a]

COc1cccc(Oc2cnc(C)cc2C(=O)NCCc2ccc(C)cc2C)c1 [Compound I-180]
LogP: 3.50^[a]

Cc1ccc(C(F)(F)CNC(=O)c2c(Oc3cccc(C(F)(F)F)c3)cnc(Cl)c2F)c(C)c1 [Compound I-181]
LogP: 4.85^[a]

COc1cccc(Oc2cnc(C)cc2C(=O)NCC(F)(F)c2ccc(C)cc2C)c1 [Compound I-182]
LogP: 3.71^[a]

Cc1ccc(CCNC(=O)c2cc(C)ncc2Oc2cccc(C(F)F)c2)c(C)c1 [Compound I-183]
LogP: 3.56^[a]

Cc1ccc(CCNC(=O)c2ccncc2Oc2cccc(C(F)(F)F)c2)c(C)c1 [Compound I-184]
LogP: 3.11^[a]

CCc1ccc(C(F)(F)CNC(=O)c2cc(Cl)ncc2Oc2cccc(C3CC3)c2)c(Cl)c1 [Compound I-185]
LogP: 5.49^[a]

Cc1ccc(CCNC(=O)c2cc(C3CC3)ncc2Oc2cccc(C3CC3)c2)c(C)c1 [Compound I-186]
LogP: 5.22^[a]

CCc1ccc(C(F)(F)CNC(=O)c2cc(CC)ncc2Oc2cccc(C3CC3)c2F)c(Cl)c1 [Compound I-187]
LogP: 5.45^[a]

Cc1ccc(C(F)(F)CNC(=O)c2c(Oc3cccc(C(F)(F)F)c3)cnc(Cl)c2-c2ccccc2)c(C)c1 [Compound I-188]
LogP: 5.12^[a]

C#Cc1cc(C(=O)NCCc2ccc(C)cc2C)c(Oc2cccc(C(F)(F)F)c2)cn1 [Compound I-191]
LogP: 4.34^[a]

O=C(NCCc1ccc(C(F)(F)F)cc1Cl)c1cc(Cl)ncc1Oc1cccc(C(F)(F)F)c1 [Compound I-192]
LogP: 4.95^[a]

O=C(NCC(F)(F)c1ccc(C2CC2)cc1Cl)c1cc(Cl)ncc1Oc1cccc(C2CC2)c1 [Compound I-193]
LogP: 5.45^[a]

Cc1ccc(CCNC(=O)c2cc(C3CC3)ncc2Oc2cccc(C(F)(F)F)c2)c(C)c1 [Compound I-194]
LogP: 4.97^[a]

COC(=O)Cc1cccc(Oc2cnc(Cl)cc2C(=O)NCCc2ccc(C)cc2C)c1 [Compound I-196]
LogP: 4.17^[a]

O=C(NCCc1ccc2[nH]cnc2c1)c1cc(Cl)ncc1Oc1cccc(C(F)(F)F)c1 [Compound I-197]
LogP: 1.82^[a]

C[Si](C)(C)C#Cc1ccc(C(F)(F)CNC(=O)c2cc(Cl)ncc2Oc2cccc(C(F)F)c2)c(Cl)c1 [Compound I-198]
LogP: 5.97^[a]

COc1c(Cl)ncc(Oc2cccc(C(F)(F)F)c2)c1C(=O)NCC(F)(F)c1ccc(C)cc1C [Compound I-199]
LogP: 4.74^[a]

COc1c(Cl)ncc(Oc2cccc(Cl)c2)c1C(=O)NCC(F)(F)c1ccc(C)cc1C [Compound I-200]
LogP: 4.62^[a]

Cc1ccc(C(F)(F)CNC(=O)c2cc(Cl)ncc2Oc2cccc(C(F)(F)F)c2)c(Cl)c1 [Compound I-201]
LogP: 4.66^[a]

Cc1cc(C(=O)NCC(F)c2ccc(Cl)cc2Cl)c(Oc2cccc(C(F)(F)F)c2)cn1 (centres unmarked) [Compound I-202]
LogP: 4.18^[a]

COCCc1ccc(C(F)(F)CNC(=O)c2cc(Cl)ncc2Oc2cccc(C(F)F)c2)c(Cl)c1 [Compound I-203]
LogP: 4.14^[a]

Cc1ccc(CCNC(=O)c2cc(-c3ccncc3Cl)ncc2Oc2cccc(C(F)(F)F)c2)c(C)c1 [Compound I-204]
LogP: 4.61^[a]

Cc1cc(C(=O)NCC(F)c2ccc(Cl)cc2C)c(Oc2cccc(C3CC3)c2F)cn1 (centres unmarked) [Compound I-205]
LogP: 4.37^[a]

Cc1ccc(CCNC(=O)c2cc(-c3cn[nH]c3)ncc2Oc2cccc(C(F)(F)F)c2)c(C)c1 [Compound I-206]
LogP: 3.63^[a]

N#CN(CCc1ccc(Cl)cc1)C(=O)c1cc(Cl)ncc1Oc1cccc(C(F)(F)F)c1 [Compound I-207]
LogP: 4.89^[a]

Cc1ccc(CCNC(=O)c2cc(C(F)(F)F)ncc2Oc2cccc(C(F)(F)F)c2)c(C)c1 [Compound I-208]
LogP: 5.04^[a]

COc1cccc(Oc2cnc(C)cc2C(=O)NCC(F)c2ccc(C)cc2Cl)c1 (centres unmarked) [Compound I-209]
LogP: 3.62^[a]

O=C(NCC(F)(F)c1ccc(Br)cc1Cl)c1cc(Cl)ncc1Oc1cccc(C2CC2)c1F [Compound I-210]
LogP: 5.31^[a]

O=C(NCC(F)(F)c1cc(Cl)sc1Cl)c1cc(Cl)ncc1Oc1cccc(C(F)(F)F)c1 [Compound I-211]
LogP: 5.04^[a]

CCc1cc(C(=O)NCC(F)(F)c2ccc(C)cc2C)c(Oc2cccc(C3CC3)c2)cn1 [Compound I-212]
LogP: 4.90^[a]

O=C(NCCc1csc2ccc(Cl)cc12)c1cc(Cl)ncc1Oc1cccc(C(F)(F)F)c1 [Compound I-213]
LogP: 5.00^[a]

Cc1ccc(CCNC(=O)c2cc(Cl)ncc2Oc2cccc(C3CC3)c2)c(C)c1 [Compound I-214]
LogP: 5.14^[a]

N#Cc1nc(Cl)cc(C(=O)NCC(F)(F)c2ccc(Br)cc2Cl)c1Oc1cccc(C(F)(F)F)c1 [Compound I-215]
LogP: 4.81^[a]

O=C(NCC(F)(F)c1ccc(C2CC2)cc1Cl)c1cc(C2CC2)ncc1Oc1cccc(C2CC2)c1F [Compound I-216]
LogP: 5.54^[a]

CNc1c(Cl)ncc(Oc2cccc(C(F)(F)F)c2)c1C(=O)NCC(F)(F)c1ccc(C)cc1C [Compound I-217]
LogP: 4.44^[a]

CNc1ncc(Oc2cccc(C(F)(F)F)c2)c(C(=O)NCC(F)(F)c2ccc(C)cc2C)c1I [Compound I-218]
LogP: 4.55^[a]

COc1cccc(Oc2cnc(C)cc2C(=O)NCC(F)c2ccc(Cl)cc2Cl)c1 (centres unmarked) [Compound I-219]
LogP: 3.75^[a]

Cc1cc(C(=O)NCC(F)c2ccc(Cl)cc2Cl)c(Oc2cccc(C3CC3)c2)cn1 (centres unmarked) [Compound I-220]
LogP: 4.44^[a]

N#Cc1nc(Cl)cc(C(=O)NCC(F)(F)c2ccc(Cl)cc2)c1Oc1cccc(C(F)(F)F)c1 [Compound I-221]
LogP: 4.39^[a]

Cc1ccc(C(F)(F)CNC(=O)c2cc(Cl)ncc2Oc2cccc(C(F)(F)F)c2I)c(C)c1 [Compound I-222]
LogP: 5.08^[a]

Cc1ccc(CCNC(=O)c2cc(Cl)ncc2Oc2cnc3ccccc3c2)c(C)c1 [Compound I-223]
LogP: 3.34^[a]

Cc1ccc(C(F)CNC(=O)c2cc(C)ncc2Oc2cccc(C(F)F)c2)c(Cl)c1 (centres unmarked) [Compound I-224]
LogP: 3.63^[a]

Cc1ccc(CCNC(=O)c2cc(Cl)nc(C#N)c2Oc2cccc(C(F)(F)F)c2)c(C)c1 [Compound I-225]
LogP: 4.58^[a]

Cc1ccc(CCNC(=O)c2cc(Cl)ncc2Oc2cccc(F)c2F)c(C)c1 [Compound I-226]
LogP: 4.38^[a]

Cc1ccc(CCNC(=O)c2cc(Cl)ncc2Oc2cnc3c(c2)CCC3)c(C)c1 [Compound I-227]
LogP: 3.35^[a]

Cc1ccc(CCNC(=O)c2cc(Cl)ncc2Oc2cccc(C=O)c2)c(C)c1 [Compound I-228]
LogP: 3.79^[a]

Cc1ccc(CCNC(=O)c2cc(Cl)ncc2Oc2cccc(OC(F)(F)F)c2F)c(C)c1 [Compound I-229]
LogP: 4.95^[a]

Cc1ccc(C(F)(F)CNC(=O)c2c(Oc3cccc(C(F)(F)F)c3)cnc(Cl)c2N2CCCC2)c(C)c1 [Compound I-230]
LogP: 5.49^[a]

Cc1ccc(C(F)(F)CNC(=O)c2c(Oc3cccc(C(F)(F)F)c3)cnc(N3CCCC3)c2I)c(C)c1 [Compound I-231]
LogP: 5.57^[a]

Cc1ccc(CCNC(=O)c2cc(Cl)ncc2Oc2ccc3c(c2)CCC3)c(C)c1 [Compound I-232]
LogP: 5.49^[a]

Cc1ccc(CCNC(=O)c2cc(Cl)ncc2Oc2cc(F)c(F)cc2F)c(C)c1 [Compound I-233]
LogP: 4.42^[a]

Cc1ccc(CCNC(=O)c2cc(C)ncc2Oc2cccc(Cl)c2)c(C)c1 [Compound I-234]
LogP: 3.96^[a]

COCCOc1cccc(Oc2cnc(Cl)cc2C(=O)NCCc2ccc(C)cc2C)c1 [Compound I-235]
LogP: 4.27^[a]

Cc1cc(C(=O)NCC(F)(F)c2ccc(Br)cc2Cl)c(Oc2cccc(C(F)F)c2)cn1 [Compound I-236]
LogP: 3.74^[a]

CSc1cccc(Oc2cnc(Cl)cc2C(=O)NCCc2ccc(C)cc2C)c1F [Compound I-237]
LogP: 4.69^[a]

Cc1ccc(CCNC(=O)c2cc(Cl)ncc2Oc2cccc(Cl)c2)c(C)c1 [Compound I-238]
LogP: 4.74^[a]

Cc1ccc(C(F)(F)CNC(=O)c2cc(C3CC3)ncc2Oc2cccc(C3CC3)c2)c(C)c1 [Compound I-239]
LogP: 5.41^[a]
